{
  "source": "patent US20240307484A1",
  "about": "(priority 2023, published 2024)",
  "key": {"4T1 cells": {"system": "4T1 cells", "assay": "Cytotoxicity / synergistic cytotoxic effect test in 4T1 cells", "format": "cell-based, mouse", "source_text": "(§1) The cell lines used in the following examples, namely the MDA-MB-231 (human triple-negative breast cancer) cell line, the 4T1 (mouse triple-negative breast cancer) cell line, and the MCF-7 (breast cancer) cell line, are easily obtainable by a person with common knowledge in the art and therefore need not be deposited. The 4T1 cell line is frequently used as a research model for the metastasis of breast cancer and a model for the selection of clinical drugs for breast cancer.\n(§2) MDA-MB-231 cells, 4T1 cells, and MCF-7 cells were treated with actinomycin D and doxorubicin in different ratios for 48 hours, before combination indices (CI) were calculated based on cytotoxicity."}, "MDA-MB-231 cells": {"system": "MDA-MB-231 cells", "assay": "Cytotoxicity / synergistic cytotoxic effect test in MDA-MB-231 cells", "format": "cell-based, human", "source_text": "as §1, §2"}, "MCF-7 cells": {"system": "MCF-7 cells", "assay": "Cytotoxicity / synergistic cytotoxic effect test in MCF-7 cells", "format": "cell-based", "source_text": "as §1, §2"}, "[1]": {"system": "4T1 breast cancer mouse models", "assay": "Metastasis test in 4T1 breast cancer mouse models", "format": "in vivo", "conditions": "4T1 mouse model; five weeks, treated every 7 days; cyclophosphamide 5 mg/kg, doxorubicin 0.5 mg/kg, actinomycin D 20 μg/kg", "method": "4T1 breast cancer mouse models were created based on common knowledge in the art. The test lasted for five weeks, and the mice in each of the following groups were treated on the 0th, 7th, 14th, 21st, 28th, and 35th day of the test: • Group 1: Without any treatment; • Group 2: With cyclophosphamide administered at a dose of 5 mg/kg: • Group 3: With both cyclophosphamide and doxorubicin administered, the dose of cyclophosphamide being 5 mg/kg, and the dose of doxorubicin being 0.5 mg/kg (equivalent to a clinical dose of 20 mg/m^2 for humans); • Group 4: With actinomycin D administered at a dose of 20 μg/kg (equivalent to a clinical dose of […] for humans); • Group 5: With doxorubicin administered at a dose of 0.5 mg/kg: • Group 6: With both actinomycin D (20 μg/kg) and doxorubicin (0.5 mg/kg) administered; and • Group 7: With both actinomycin D (10 μg/kg) and doxorubicin (0.25 mg/kg) administered, the doses being 0.5 times as high as those for group 6.\nOnce the test was completed, the mice in each group were sacrificed, and the numbers of breast tumors that had metastasized to the lungs and to the liver (i.e., lung metastatic nodules and liver metastatic nodules) of each group of mice were counted. In addition, lungs and livers were collected from the mice, sectioned, and then stained with hematoxylin and eosin (H&E) stain, as shown in FIG. 20."}, "[2]": {"conditions": "Table 1, 4T1 cells, read-out: IC50 of various chemotherapy drugs against different cancer cells"}, "[3]": {"conditions": "Table 1, MDA-MB-231 cells, read-out: IC50 of various chemotherapy drugs against different cancer cells"}, "[4]": {"conditions": "Table 1, MCF-7 cells, read-out: IC50 of various chemotherapy drugs against different cancer cells"}},
  "note": "Where two headings read alike, the source gives them in different places. Numbered stars: 1 amine (or outer) side, 2 acyl side, 3 side chain; on linkers, the order of the positions; unused ones are H or OH. Bridge positions count the residues as written; N and C are the ends. Square brackets hold non-standard residues; d marks the D form. Peptide text beside a SMILES is read from it. I, II: the chains in the order shown. Actinocin(9to1) = Cc1c2oc3c(C)ccc(C(=O)[*:1])c3nc-2c(C(=O)[*:2])c(N)c1=O; NMeV = CN[C@H](C(=O)O)C(C)C; Sar = CNCC(=O)O",
  "data": [
    {"smiles": "Cc1c2oc3c(C)ccc(C(=O)N[C@@H]4C(=O)N[C@H](C(C)C)C(=O)N5CCC[C@H]5C(=O)N(C)CC(=O)N(C)[C@@H](C(C)C)C(=O)O[C@@H]4C)c3nc-2c(C(=O)N[C@@H]2C(=O)N[C@H](C(C)C)C(=O)N3CCC[C@H]3C(=O)N(C)CC(=O)N(C)[C@@H](C(C)C)C(=O)O[C@@H]2C)c(N)c1=O", "note": "[Actinomycin D, actinomycin D] (I: T[dV]P[Sar][NMeV] / II: T[dV]P[Sar][NMeV]; ester I:1-I:C, II:1-II:C; linker I:N-II:N via Actinocin(9to1))", "values": [
      {"measurement": "IC50", "setting": "4T1 cells; Mus musculus, 4T1, 48 h", "value": 2.6, "unit": "nM"},
      {"measurement": "IC50", "setting": "4T1 cells; Mus musculus, 4T1, read-out: IC50 of various chemotherapy drugs against different cancer cells", "value": "500 ± 40", "unit": "nM"},
      {"measurement": "IC50", "setting": "MDA-MB-231 cells; Homo sapiens, MDA-MB-231, 48 h", "value": 3.3, "unit": "nM"},
      {"measurement": "IC50", "setting": "MDA-MB-231 cells; Homo sapiens, MDA-MB-231, read-out: IC50 of various chemotherapy drugs against different cancer cells", "value": "1100 ± 190", "unit": "nM"},
      {"measurement": "IC50", "setting": "MCF-7 cells; Homo sapiens, MCF7, 48 h", "value": 3.7, "unit": "nM"},
      {"measurement": "IC50", "setting": "MCF-7 cells; Homo sapiens, MCF7, read-out: IC50 of various chemotherapy drugs against different cancer cells", "value": "300 ± 60", "unit": "nM"},
      {"measurement": "number of liver metastatic nodules", "setting": "[1]", "value": "increased in comparison with those of group-3 mice"},
      {"measurement": "number of lung metastatic nodules", "setting": "[1]", "value": "increased in comparison with those of group-3 mice"}
    ]},
    {"smiles": "O=c1[nH]cc(F)c(=O)[nH]1", "note": "[5FU]", "values": [
      {"measurement": "IC50", "setting": "4T1 cells; [2]", "value": "5900 ± 300", "unit": "nM"},
      {"measurement": "IC50", "setting": "MDA-MB-231 cells; [3]", "value": "> 100000", "unit": "nM"},
      {"measurement": "IC50", "setting": "MCF-7 cells; [4]", "value": "38300 ± 5000", "unit": "nM"}
    ]},
    {"smiles": "N.N.[Cl][Pt][Cl]", "note": "[Cisplatin, cisplatin]", "values": [
      {"measurement": "IC50", "setting": "4T1 cells; [2]", "value": "3300 ± 1200", "unit": "nM"},
      {"measurement": "IC50", "setting": "MDA-MB-231 cells; [3]", "value": "37200 ± 5100", "unit": "nM"},
      {"measurement": "IC50", "setting": "MCF-7 cells; [4]", "value": "19100 ± 2200", "unit": "nM"}
    ]},
    {"smiles": "COc1cccc2c1C(=O)c1c(O)c3c(c(O)c1C2=O)C[C@@](O)(C(=O)CO)C[C@@H]3O[C@H]1C[C@H](N)[C@H](O)[C@H](C)O1", "note": "[Doxorubicin, doxorubicin]", "values": [
      {"measurement": "IC50", "setting": "4T1 cells; Mus musculus, Table 1, 4T1 cells, read-out: IC50 of various chemotherapy drugs against different cancer cells", "value": "2.8 ± 1.1", "unit": "nM"},
      {"measurement": "IC50", "setting": "4T1 cells; Mus musculus, Table 2, single drug, 4T1 cells, 48 hours, read-out: IC50", "value": 579, "unit": "nM"},
      {"measurement": "IC50", "setting": "MDA-MB-231 cells; Homo sapiens, Table 1, MDA-MB-231 cells, read-out: IC50 of various chemotherapy drugs against different cancer cells", "value": "6.5 ± 0.9", "unit": "nM"},
      {"measurement": "IC50", "setting": "MDA-MB-231 cells; Homo sapiens, Table 2, single drug, MDA-MB-231 cells, 48 hours, read-out: IC50", "value": 1270, "unit": "nM"},
      {"measurement": "IC50", "setting": "MCF-7 cells; Homo sapiens, MCF7, Table 1, MCF-7 cells, read-out: IC50 of various chemotherapy drugs against different cancer cells", "value": "4.5 ± 1.7", "unit": "nM"},
      {"measurement": "IC50", "setting": "MCF-7 cells; Homo sapiens, MCF7, Table 2, single drug, MCF-7 cells, 48 hours, read-out: IC50", "value": 323, "unit": "nM"},
      {"measurement": "number of liver metastatic nodules", "setting": "[1]", "value": "significantly less liver metastatic nodules than group-1 mice"},
      {"measurement": "number of lung metastatic nodules", "setting": "[1]", "value": "approximately the same number of lung metastatic nodules as group-3 mice"}
    ]},
    {"smiles": "O=P1(N(CCCl)CCCl)NCCCO1", "note": "(stereo not drawn) [cyclophosphamide]", "values": [
      {"measurement": "number of liver metastatic nodules", "setting": "[1]", "value": "reduced only slightly"},
      {"measurement": "number of lung metastatic nodules", "setting": "[1]", "value": "reduced only slightly"}
    ]}
  ]
}
